Literature values as cited in patent publication US7175830B2, “Imaging of drug accumulation as a guide to antitumor therapy” (The United States of America as represented by the …, priority 1999, dated 2007).

Settings: circulates in the body; higher than SN-38, the active form

circulating concentration relative to that of its metabolite SN-38: about 100 fold
SMILES: CCc1c2c(nc3ccc(OC(=O)N4CCC(N5CCCCC5)CC4)cc13)-c1cc3c(c(=O)n1C2)COC(=O)[C@]3(O)CC [Irinotecan]
